How the values were obtained:
[1] = molecular target: T1, MMP-3 (Rattus norvegicus, UniProt P03957); test: Effect of MMP inhibitor on cells treated with MMP-3 (vimentin-EGFP construct, morphology, FIG. 8b); assay type: cell-based, mouse
T1 construct: expressed in transfected cells; host or cells: SCp2 cells; conditioned medium used as the MMP-3 source
T1 sequence (P03957 98-475): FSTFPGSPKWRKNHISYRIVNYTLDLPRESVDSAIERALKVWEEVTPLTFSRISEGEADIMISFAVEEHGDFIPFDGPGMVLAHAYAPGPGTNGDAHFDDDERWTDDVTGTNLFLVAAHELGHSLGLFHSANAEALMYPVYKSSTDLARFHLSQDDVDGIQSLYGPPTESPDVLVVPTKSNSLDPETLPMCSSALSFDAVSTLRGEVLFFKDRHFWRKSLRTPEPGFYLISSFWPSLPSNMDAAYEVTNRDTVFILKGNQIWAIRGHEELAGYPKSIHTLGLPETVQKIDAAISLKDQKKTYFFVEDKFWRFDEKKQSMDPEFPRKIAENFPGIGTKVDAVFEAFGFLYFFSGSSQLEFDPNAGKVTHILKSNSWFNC
Description: The MMP inhibitor GM6001 blocked the MMP-3-mediated effects. […] Scale bar, 50 μm.

[2] = tested on: 8-oxodeoxyguanosine; test: 8-oxoG analysis, FITC-avidin nuclear staining (DNA damage); assay type: cell-based, mouse; conditions: for MMP-3-induced increase in FITC-avidin nuclear staining: cells treated with MMP-3 plus inhibitor, FIG. 4b
Protocol: ROS and 8-oxoG analyses. […] FITC-conjugated avidin (Sigma; 1 hr, 37° C.). […] ID NO: 12). […] J Cell Biol 158, 357-68 (2002).

[3] = tested on: vimentin; test: Mesenchymal vimentin expression; assay type: cell-based, mouse; conditions: for expression of mesenchymal vimentin: MMP-3 4 days or 25 μM H2O2 7 days
Protocol: (§1) Except as otherwise indicated, cells were incubated in the presence of conditioned medium containing MMP-3 for 4 days and with 25 μM H2O2 for 7 days. NAC was used at a concentration of 10 mM. Antibodies against cytokeratin and vimentin were described previously (Lochter, A. et al. J Biol Chem 272, 5007-15, 1997; Lochter, A. et al. J Cell Biol 139, 1861-72, 1997).
(§2) […]; all modified plasmids were sequence-verified.

[4] = tested on: SCp2 cells; test: PALA resistance assay (genomic instability); assay type: cell-based, mouse
[5] = tested on: SCp2 cells; test: Cell scattering (FIG. 3f); assay type: cell-based, mouse
Protocol: as §1

[6] = tested on: Snail; test: Snail transcript expression; assay type: cell-based, mouse; conditions: FIG. 3b; for expression of the transcription factor Snail: MMP-3, or H2O2 in the absence of MMP-3
Protocol: as §1, §2

[7] = tested on: cytokeratins; test: Epithelial cytokeratin levels in MMP-3-treated cells; assay type: cell-based, mouse
Description: Cell culture, antibodies, and plasmids. Cell culture was as previously described (Lochter, A. et al. Misregulation of stromelysin-1 expression in mouse mammary tumor cells accompanies acquisition of stromelysin-1-dependent invasive properties. J. Biol Chem 272, 5007-15, 1997; Lochter, A. et al. Matrix metalloproteinase stromelysin-1 triggers a cascade of molecular alterations that leads to stable epithelial-to-mesenchymal conversion and a premalignant phenotype in mammary epithelial cells. J Cell Biol 139, 1861-72, 1997); for gene repression, a 5 mg ml^−1 stock solution of tetracycline in 100% ethanol was diluted 1:1000 into culture medium and changed daily. To stimulate cells with MMP-3, we used medium that had been conditioned by SCp2 cells containing the tet-regulated, autoactivated MMP-3-construct (Lochter, A. et al. J Biol Chem 272, 5007-15, 1997; Lochter, A. et al. J Cell Biol 139, 1861-72, 1997) with expression induced by growth in the absence of tetracycline; conditioned medium from cells repressed by treatment with tetracycline was used for controls. This conditioned medium was analyzed by zymography to verify that only MMP-3 was being expressed, and was shown be active through extracellular proteolysis (FIG. 8). […] NAC was used at a concentration of 10 mM. […]

[8] = tested on: SCp2 cells; test: MMP-3-induced cell motility, invasion and morphological alterations (not shown); assay type: cell-based, mouse; conditions: NAC
[9] = tested on: SCp2 cells; test: LC50 of PALA for SCp2 cells; conditions: read-out: LC50 of PALA for SCp2 cells
[10] = tested on: cellular ROS; conditions: treatment with MMP-3; FIG. 2a
Protocol: ROS and 8-oxoG analyses. To measure ROS concentrations, cells were incubated in the dark with 50 mM DCFDA (Molecular Probes) for 30 min in serum- and phenol-red-free medium. […] Images were captured using a Nikon Diaphot 300 microscope and Spot RT camera and software (Technical Instruments, Burlingame). Fluorescence was quantified using IMAGEJ (URL:=<http://rsb.info.nih.gov/ij/index.html>). For DCFDA staining, cellular fluorescence was quantified, for FITC-avidin staining, nuclear fluorescence was measured (using a DAPI image mask). More than 250 measurements were made for each data point.

[11] = tested on: CAD locus; test: Fluorescence in situ hybridization of CAD gene locus; assay type: cell-based, mouse; conditions: exposure to MMP-3; FIG. 4d
[12] = tested on: keratin, E-cadherin, vimentin, SM actin, TGFβ, Snail, collagen A1 and fibronectin; conditions: cells treated with MMP-3 for 4 days; FIG. 5b
Protocol: (§3) Transcript levels were assessed using RT/PCR by isolating RNA (Tri-pure; Roche Diagnostics), synthesizing cDNA, and performing quantitative, real-time PCR (Lightcycler, Roche Diagnostics); all these experiments were normalized to GAPDH.

[13] = tested on: RhoA; conditions: MMP-3-treated cells; not shown
[14] = tested on: SCp2 cells; conditions: MMP-3 for 14 days, then selected with PALA; FIG. 4f
[15] = tested on: mammary epithelial cells; test: Cell motility assessed by scratch assay; assay type: cell-based, mouse; conditions: FIG. 1f
Description: FIG. 1f is a graph showing rate of cell migration and motility as assessed by scratch assay (Goodman, S. L., Vollmers, H. P., and Birchmeier, W. Cell 41, 1029-1038, 1985).

[16] = tested on: Rac1b; conditions: mammary epithelial cells treated with MMP-3; FIGS. 1b-1d
Protocol: as §3
For analysis of Rac1 and Rac1b (FIG. 1c), oligonucleotide primers that hybridize to sequences flanking the splice insertion site were used; for specific analysis of Rac1b (FIG. 1d, 4h), oligonucleotide primers specific for the Rac1b splice isoform were used.

[17] = tested on: Cdc42; conditions: MMP-3-treated cells; not shown
[18] = SCp2 cells, treatment with MMP-3 for 28 days, FIG. 5a

CNC(=O)[C@H](Cc1c[nH]c2ccccc12)NC(=O)[C@@H](CC(=O)NO)CC(C)C [GM6001] was tested, and the MMP-3-mediated effects ([1]; cells treated with MMP-3) was “blocked”, the “malignant transformation (flattened morphology of invasive cells) of MMP-3 induced cells” value ([1]; coincubation with GM6001) was “prevents” and the “MMP-3-induced increase in FITC-avidin nuclear staining” value [2] was “blocked”.

In the case of OO [H2O2, reference compound], the “expression of mesenchymal vimentin” value ([3]; FIG. 3g) is reported as “can stimulate expression”, the “PALA resistance in the absence of MMP-3” value ([4]; H2O2 25 μM, FIG. 4e) is reported as “reproduced” and the cell scattering [5] is reported as “cell scattering induced”. The “expression of the transcription factor Snail” value [6] was “induced”.

With CC(=O)N[C@@H](CS)C(=O)O [NAC, N-acetyl cysteine, reference compound] the “MMP-3-induced downregulation of epithelial cytokeratins” value ([7]; NAC 10 mM, FIG. 3a) was “effectively inhibited”, the “MMP-3-induced upregulation of mesenchymal vimentin” value ([3]; NAC 10 mM, FIG. 3g) was “effectively inhibited” and the “MMP-3-induced PALA resistance / CAD amplification” value ([4]; 14 d treatment with MMP-3, NAC 10 mM, FIG. 4e) was “inhibited”. The “MMP-3-induced increase in FITC-avidin nuclear staining” value [2] was “blocked”, the “MMP-3-induced cell motility, invasion, and morphological alterations” value [8] was “inhibited” and the “MMP-3-enhanced expression of transcription factor Snail” value ([6]; NAC 10 mM) was “blocked”.

For O=C(O)C[C@H](NC(=O)CP(=O)(O)O)C(=O)O [PALA, N-(phosphonacetyl)-L-aspartate], the CC50 [9] was 25 µM.

With “MMP-3: autoactivated MMP-3 supplied as medium conditioned by SCp2 cells with tet-regulated construct” the cytokeratin staining [7, 18] was “decrease in cytokeratins”, the “cellular ROS (DCFDA fluorescence)” value [10] was “produced increases” and the “expression of mesenchymal vimentin” value ([3]; FIG. 3g) was “can stimulate expression”. For the same compound, the vimentin staining [3, 18] was “increase in vimentin”, the “CAD locus copy number in PALA-resistant cells” value [11] was “amplification of the CAD locus” and the “transcript levels of keratin and E-cadherin” value [12] was “greater than two-fold decrease”. The “transcript levels of vimentin, SM actin, TGFβ, Snail, collagen A1 and fibronectin” value [12] was “two-fold or greater increase”, the “activity of RhoA” value [13] was “unchanged” and the “PALA-resistant colonies, after 28 days of MMP-3 exposure” value ([4]; SCp2 cells, 200 μM PALA, after 28 days) was 700 colonies/10^5 cells. The “PALA-resistant colonies, after one week of MMP-3 exposure” value ([4]; SCp2 cells, 200 μM PALA, one week of MMP-3 exposure) was 200 colonies/10^5 cells, the FITC-avidin nuclear staining ([2]; cells treated with MMP-3 vs untreated, FIG. 4a) was “significantly increased” and the cell scattering [5] was “cell scattering induced”. The “genomic alterations by CGH analysis” value [14] was “many additional genomic amplifications and deletions”, the “cell migration and motility” value [15] was “causes an increase” and the “Rac1b transcript and expression levels” value [16] was “upregulates”. The “activity of Cdc42” value [17] was “unchanged” and the “expression of the transcription factor Snail” value [6] was “enhances expression”.

Reference: patent US20090191543A1, “IDENTIFICATION OF RAC1B AS A MARKER AND MEDIATOR OF METALLOPROTEINASE-INDUCED MALIGNANCY” (THEREGENTS OF THE UNIVERSITY OF CALIFORNIA, priority 2005, published 2009)
